# Laboratory results published in US6469013B2, “Therapeutic compounds” (Parker Hughes Institute, priority 1998, dated 2002).
# pIC50: −log10 of the molar value.
# Assays:
# recombinant murine JAK3 = target: T1, recombinant murine JAK3 (Mus musculus, UniProt Q62137); experiment: Recombinant JAK3 immune complex kinase assay (baculovirus, Sf21); assay type: biochemical
# T1 sequence (Q62137 1-1100): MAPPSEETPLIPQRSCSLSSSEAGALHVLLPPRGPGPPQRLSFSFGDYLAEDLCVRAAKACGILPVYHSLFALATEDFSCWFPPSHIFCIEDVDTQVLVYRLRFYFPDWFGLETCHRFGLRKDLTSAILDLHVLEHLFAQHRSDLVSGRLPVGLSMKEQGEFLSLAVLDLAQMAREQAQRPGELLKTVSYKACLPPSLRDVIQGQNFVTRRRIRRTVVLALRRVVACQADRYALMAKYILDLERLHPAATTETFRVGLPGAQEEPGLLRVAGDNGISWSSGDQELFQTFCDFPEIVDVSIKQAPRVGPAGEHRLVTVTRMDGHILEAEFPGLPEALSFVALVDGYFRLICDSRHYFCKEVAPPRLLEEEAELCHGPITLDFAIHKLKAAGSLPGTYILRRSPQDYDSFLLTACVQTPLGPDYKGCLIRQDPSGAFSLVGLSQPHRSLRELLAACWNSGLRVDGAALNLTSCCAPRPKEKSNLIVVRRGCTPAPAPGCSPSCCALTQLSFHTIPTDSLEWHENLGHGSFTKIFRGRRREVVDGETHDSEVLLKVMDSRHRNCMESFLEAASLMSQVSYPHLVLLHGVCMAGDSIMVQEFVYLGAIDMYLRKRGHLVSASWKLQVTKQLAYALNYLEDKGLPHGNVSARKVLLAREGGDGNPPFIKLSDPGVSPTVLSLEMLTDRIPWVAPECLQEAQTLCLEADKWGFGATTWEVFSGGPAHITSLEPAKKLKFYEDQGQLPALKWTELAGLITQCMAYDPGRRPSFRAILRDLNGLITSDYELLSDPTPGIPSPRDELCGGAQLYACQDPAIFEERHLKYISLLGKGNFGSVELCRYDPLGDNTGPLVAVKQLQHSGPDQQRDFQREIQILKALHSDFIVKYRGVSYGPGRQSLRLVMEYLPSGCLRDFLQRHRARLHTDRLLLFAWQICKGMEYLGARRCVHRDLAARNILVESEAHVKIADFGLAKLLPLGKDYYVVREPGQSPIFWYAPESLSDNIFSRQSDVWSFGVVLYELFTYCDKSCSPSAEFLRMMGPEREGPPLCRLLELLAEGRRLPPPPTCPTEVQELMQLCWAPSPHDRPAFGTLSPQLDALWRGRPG
# Method: Sf21 (IPLB-SF21-AE) cells (Vassilev, A., et al., J. Biol. Chem. 274: 1646-1656, 1999) derived from the ovarian tissue of the fall armyworm Spodotera frugiperda, were obtained from Invitrogen (Carlsbad, Calif.) and maintained at 26-28° C. in Grace's insect cell medium supplemented with 10% FBS and 1.0% antibiotic/antimycotic (GIBCO-BRL). Stock cells were maintained in suspension at 0.2-1.6×10^6/ml in 600 ml total culture volume in 1 L Bellco spinner flasks at 60-90 rpm. Cell viability was maintained at 95-100% as determined by trypan blue dye exclusion. Sf21 cells were infected with a baculovirus expression vector for BTK, SYK, JAK1, JAK2, or JAK3. Cells were harvested, lysed (10 MM Tris pH7.6, 100 mM NaCl, 1% Nonidet P40, 10% glycerol, 50 mM NaF, 100 μM Na3VO4, 50 μg/ml phenylmethylsulfonyl fluoride, 10 μg/ml aprotonin, 10 μg/ml leupeptin), the kinases were immunoprecipitated from the lysates, and their enzymatic activity assayed, as reported (Vassilev, A., et al., J. Biol. Chem. 274: 1646-1656, 1999; Uckun, F. M., et al., Science. 22: 1096-1100, 1996; Goodman, P. A., et al., J. Biol. Chem. 273: 17742-48, 1998; Mahajan, S., et al., Mol. Cell. Biol. 15: 5304-11, 1995; and Uckun, F. M., et al., Science. 267: 886-91, 1995). The immunoprecipitates were subjected to Western blot analysis as previously described (Vassilev, A., et al., J. Biol. Chem. 274: 1646-1656, 1999; and Uckun, F. M., et al., Science. 22: 1096-1100, 1996).
# In JAK3 immune complex kinase assays (17, 22), KL-2 EBV-transformed human lymphoblastoid B cells (native JAK3 kinase assays) or insect ovary cells (recombinant JAK3 kinase assays) were lysed with NP-40 lysis buffer (50 mM Tris, pH 8, 150 mM NaCl, 5 mM EDTA, 1% NP-40, 100 μM sodium orthovanadate, 100 μM sodium molybdate, 8 μg/ml aprotinin, 5 μg/ml leupeptin, and 500 μM PMSF) and centrifuged 10 min at 13000× g to remove insoluble material. Samples were immunoprecipitated with antisera prepared against JAK3. The antisera were diluted and immune complexes collected by incubation with 15 μl protein A Sepharose. After 4 washes with NP-40 lysis buffer, the protein A Sepharose beads were washed once in kinase buffer (20 mM MOPS, pH7, 10 mM MgCl2) and resuspended in the same buffer. Reactions were initiated by the addition of 25 μCi [γ^32P] ATP (5000 Ci/mMole) and unlabeled ATP to a final concentration of 5 μM. Reactions were terminated by boiling for 4 min in SDS sample buffer. Samples were run on 9.5% SDS polyacrylamide gels and labeled proteins were detected by autoradiography. […] For each drug concentration, a kinase activity index (KA) was determined by comparing the kinase activity in phosphorimager units (PIU) to that of the baseline sample. […]
# C57BL/6 male mice = experiment: Low-dose streptozotocin (LDSTZ) diabetes model; assay type: in vivo, mouse; details: 100 mg/kg daily i.p.
# Method: C57BL/6 male mice or JAK3-deficient and WT mice (8-10-wk-old) were injected intraperitoneally with low-dose (40 mg/kg ) of STZ (Sigma, St Louis, Mo.) daily for 5 consecutive days, for induction of autoimmune experimental diabetes (LDSTZ). STZ was dissolved in citrate buffer pH 4.0 on ice, and injected within 10 min of preparation. Mice were monitored for diabetes development by testing blood glucose from the second week (day 7) after the STZ administrations by One Touch Profile diabetes tracking system (Lifescan, Milpitas, Calif.). Mice with glycemia over 220 mg/dl on three consecutive tests were considered diabetic, with the first detection of chronic glycemia taken as the date of diabetes onset. A group of C57BL/6 males was treated with WHI-P131-100 mg/kg/day, i.p., devided in two equal doses, from a beggining of the experiment till day 25.
compound,measurement,setting,value
"COc1cc2ncnc(Nc3ccc(O)cc3)c2cc1OC [WHI-P131, 4-(4′-hydroxyl-phenyl)-amino-6,7-dimethoxyquinazoline]",pIC50,recombinant murine JAK3; recombinant murine JAK3,4.11
same,pIC50,"recombinant murine JAK3; recombinant murine JAK3, converted from μg/ml",~4.11
same,diabetic mice,C57BL/6 male mice; day 7 post first STZ injection,20%
same,diabetic mice,C57BL/6 male mice; day 9,50%
same,diabetic mice,C57BL/6 male mice; day 11,65%
